{"source": "patent US8822533B1", "about": "“Methods and compositions for repelling and/or killing insects” (The United States of America, as represented by the …, priority 2011, dated 2014)", "key": {"[1]": {"tested_on": "Ae. aegypti + An. albimanus", "experiment": "Bite protection of FRACUs (Defender-M) treated with insecticides", "type": "in vivo", "details": "FRACU (Defender-M) sleeve; allethrin 0.085, bioresmethrin 0.106, etofenprox 0.101, bifenthrin 0.101 mg/cm^2", "experimental": "Biological Evaluation: Bite protection assays were conducted with laboratory-reared 7-12 day old mosquitoes or sand flies. The species used throughout these studies are Aedes aegypti (Orlando, 1952) and Phlebotomus papatasi sand flies (Jerusalem, 1983). Females were pre-selected using either a hand draw box or a mechanical aspirator.\nAn assay was conducted by wearing sewn sleeves made from clothing material. Treated specimens were assayed with untreated controls to correct for the bite resistance afforded by material construction and composition. The untreated control was tested at the beginning of the experiment, followed by successively higher candidate repellent concentrations on sleeves. Sleeves were sewn from a cut out single ply trapezoidal pattern (33.2 cm×21 cm×25.5 cm height) of material. Sleeves were normally with a candidate repellent at the EPA permethrin label rate of 0.52% weight on (+5% tolerance) or less (0.125 mg/cm^2 for the 50/50 Nylon/Cotton (NYCO) Army Combat Uniform and 0108 mg./cm2 for the 65% Rayon/25% Para-aramid/10% Nylon Fire-Resistant Army Combat Uniform). Permethrin was 35:65cis: trans, 95.85% technical material. Experimental repellents were received as neat samples with <5% impurities. The treatment occurred by dissolution of repellent in suitable quantity of acetone to saturate the clothing, but minimizing excess solution. Excess solution was quantified and this amount of excess was then used to calculate the estimated amount of repellent applied to the material.\nInsects were maintained in colony at approximately 78° F. and 60-80% RH. The photoperiod was 12:12. The mosquito cages were approximately 60000 cm^3 and each contained 175 to 225 female mosquitoes. […] Cages for sand fly work were slightly smaller (15000 cm^3) and constructed of acrylic for filming purposes and with screens on the exterior edges to allow air flow through the system. About 20-40 sand flies were released in cages for each assay. Assays started when the sleeved arm was inserted through the sleeve into the cage. Normally the hand was protected by a glove, but there were situations (i.e. sand fly data presented here) when the ability of a repellent to protect the untreated hand was determined. The assay periods were 15 min for the mosquitoes and 25-30 minutes for sand flies. The insects were allowed to land, probe and possibly bloodfeed during this time. At the conclusion of the experiment, all insects were knocked down or aspirated and the percentage that bloodfed of the total female test population in the cage was recorded. The protect level was calculated by Abbott's formula as a percentage reduction in bites compared to the untreated fabric control sleeve.\nWe were able to examine several treatments on the FRACU fabric sleeves (Table 7). […]"}, "[2]": {"tested_on": "Phlebotomus papatasi sand flies", "experiment": "Sleeve bite protection assay on treated uniform fabric, sand flies", "type": "in vivo, Phlebotomus papatasi (Jerusalem, 1983)", "details": "FRACU, untreated sleeve + TL-I-73 strip 0.163 mg/cm^2, hand ungloved, 25-29 minutes", "experimental": "(§1) Biological Evaluation: Bite protection assays were conducted with laboratory-reared 7-12 day old mosquitoes or sand flies. The species used throughout these studies are Aedes aegypti (Orlando, 1952) and Phlebotomus papatasi sand flies (Jerusalem, 1983). Females were pre-selected using either a hand draw box or a mechanical aspirator. An assay was conducted by wearing sewn sleeves made from clothing material. Treated specimens were assayed with untreated controls to correct for the bite resistance afforded by material construction and composition. The untreated control was tested at the beginning of the experiment, followed by successively higher candidate repellent concentrations on sleeves. Sleeves were sewn from a cut out single ply trapezoidal pattern (33.2 cm×21 cm×25.5 cm height) of material. […] Permethrin was 35:65cis: trans, 95.85% technical material. Experimental repellents were received as neat samples with <5% impurities. The treatment occurred by dissolution of repellent in suitable quantity of acetone to saturate the clothing, but minimizing excess solution. Excess solution was quantified and this amount of excess was then used to calculate the estimated amount of repellent applied to the material. […] The photoperiod was 12:12. The mosquito cages were approximately 60000 cm^3 and each contained 175 to 225 female mosquitoes. […] Cages for sand fly work were slightly smaller (15000 cm^3) and constructed of acrylic for filming purposes and with screens on the exterior edges to allow air flow through the system. About 20-40 sand flies were released in cages for each assay. Assays started when the sleeved arm was inserted through the sleeve into the cage. Normally the hand was protected by a glove, but there were situations (i.e. sand fly data presented here) when the ability of a repellent to protect the untreated hand was determined. The assay periods were 15 min for the mosquitoes and 25-30 minutes for sand flies. The insects were allowed to land, probe and possibly bloodfeed during this time. At the conclusion of the experiment, all insects were knocked down or aspirated and the percentage that bloodfed of the total female test population in the cage was recorded. The protect level was calculated by Abbott's formula as a percentage reduction in bites compared to the untreated fabric control sleeve. Specific conditions for bioassays are noted with corresponding data contained in the Tables."}, "[3]": {"tested_on": "Mosquitoes, either Aedes aegypti (Liverpool) or Anopheles stephensi Liston", "experiment": "K&D module in vitro bioassay: biting protection, knockdown and mortality", "type": "in vivo", "experimental": "In vitro bioassays were conducted as described by Klun et. al. (Klun, J. A., et al., J. Med. Entomol., 40: 293-299 (2005)). Each test replicate consisted of 3 treatments: a control (EtOH); a standard (Deet, 4.54 nmol/μl); and an experimental compound (pyrethroid analogs, 4.54 nmol/ul). The 3 treatments were randomly assigned to consecutive cells in 2, 6-cell reservoirs connected in series to a single water-bath pump; thus, 4 replicates could be tested/run. Tests were performed in an Air Science USA hood, with an air movement velocity of approx. 110-120 ft./min., temperature of 25-27° C., and RH of 15-25%. A 6-celled reservoir was connected to and heated by a constant-temperature (38° C.) water circulator (Lauda E100, Wobser GMGH and Co., Konigshofell, Germany).\nPrior to each test, the upper surface of each reservoir was coated with a thin layer of high-vacuum silicone grease (Dow Corning Corp., Midland, Mich.), and the cells then filled (approx. 6 ml. capacity) or topped-off with either: (1) expired human red blood cells suspended in citrate-phosphate-dextrose-adenine (CPDA) solution, not more than 1 month past expiration date, and to which 110 mg ATP/35 ml. blood-CPDA had been added on the day of testing; or (2) CPDA+ATP×^−3, usually made up or diluted to 10^−3 ATP on the day of testing. The filled cells were then covered with an Edicol collagen membrane (Devro, Sandy Run, S.C.) strip, and then with a just-treated (110 μl of 4.54 nmol/μl treatment or control solution) organdy cloth (G Street Fabrics, Rockville, Md.) strip. Mosquitoes used in tests were either Aedes aegypti_(Liverpool) or Anopheles stephensi_Liston. K&D modules containing 5 adult females/cell were placed over a Teflon separator atop each reservoir; the sliding floors opened allowing access to the treated organdy cloth and membrane-covered cell; and the number of mosquitoes biting (proboscis inserted through the cloth) and/or observed to be engorged within each cell at the end of a 3-5 min. exposure period was recorded. Mosquitoes were used only once in a test, and then frozen and discarded.\nOnly tests in which 3 or more females fed in the control cell were analyzed, as lower feeding rates are indicative of substandard feeding readiness of that group of mosquitoes.\n[…] Data were collected to record knockdown in 6 minutes, one hour and 24 hours post exposure."}, "Ae. aegypti mosquitoes": {"tested_on": "Ae. aegypti mosquitoes", "experiment": "Sleeve bite protection assay on treated uniform fabric, mosquitoes", "type": "in vivo, Aedes aegypti (Orlando, 1952)", "experimental": "as §1"}, "[4]": {"details": "ACU sleeve, stored one year then tested, concentrations as E1"}, "[5]": {"details": "FRACU, untreated sleeve + treated strip, Ultrathon (34.34% DEET) on hand, TL-I-73 0.163, transfluthrin 0.158 mg/cm^2"}, "[6]": {"details": "FRACU, untreated sleeve + treated strip, hand gloved, TL-I-73 0.163, transfluthrin 0.158 mg/cm^2"}}}
{"smiles": "CC(C)=C[C@@H]1[C@@H](C(=O)OCc2coc(Cc3ccccc3)c2)C1(C)C", "note": "[Bioresmethrin]", "values": [{"measurement": "Bite Protection (% ± SE) (Ae. aegypti + An. albimanus)", "setting": "[1]", "value": "98.1 ± 0.8", "unit": "%"}]}
{"smiles": "COCc1c(Cl)c(Cl)c(COC(=O)[C@@H]2[C@@H](C=C(C)C)C2(C)C)c(Cl)c1Cl", "note": "[TL-I-73]", "values": [{"measurement": "Bite Protection (%)", "setting": "[2]", "value": 21.8, "unit": "%"}, {"measurement": "Blood-fed #", "setting": "[2]", "value": "7 #"}, {"measurement": "Fed (%)", "setting": "[2]", "value": 31.8, "unit": "%"}, {"measurement": "Knockdown 6 min (%)", "setting": "[3]; 2.5 nM\\cm^2, K&D module", "value": 97, "unit": "%"}, {"measurement": "Knockdown 1 hour (%)", "setting": "[3]; 2.5 nM\\cm^2, K&D module", "value": 100, "unit": "%"}, {"measurement": "Knockdown 24 hours (%)", "setting": "[3]; 2.5 nM\\cm^2, K&D module", "value": 100, "unit": "%"}, {"measurement": "Not feeding 3 minutes (%)", "setting": "[3]; 2.5 nM\\cm^2, K&D module", "value": 100, "unit": "%"}, {"measurement": "Knockdown 6 min (%)", "setting": "[3]; 25 nM\\cm^2, K&D module", "value": 97, "unit": "%"}, {"measurement": "Knockdown 1 hour (%)", "setting": "[3]; 25 nM\\cm^2, K&D module", "value": 100, "unit": "%"}, {"measurement": "Knockdown 24 hours (%)", "setting": "[3]; 25 nM\\cm^2, K&D module", "value": 100, "unit": "%"}, {"measurement": "Not feeding 3 minutes (%)", "setting": "[3]; 25 nM\\cm^2, K&D module", "value": 100, "unit": "%"}, {"measurement": "Blood-fed #", "setting": "Ae. aegypti mosquitoes; ACU (50/50 NYCO) sleeve, glove on hand, 15 min, permethrin 0.118, transfluthrin 0.108, TL-I-107 0.107, TL-I-141 0.109, TL-I-105 0.107, TL-I-73 0.102 mg/cm^2", "value": "0 #"}, {"measurement": "Bite Protection (%)", "setting": "Ae. aegypti mosquitoes; ACU (50/50 NYCO) sleeve, glove on hand, Abbott's formula vs untreated sleeve, concentrations as E1", "value": 100, "unit": "%"}, {"measurement": "Fed (%)", "setting": "Ae. aegypti mosquitoes; ACU (50/50 NYCO) sleeve, glove on hand, concentrations as E1", "value": 0.0, "unit": "%"}, {"measurement": "Bite Protection (%)", "setting": "Ae. aegypti mosquitoes; [4]", "value": 100, "unit": "%"}, {"measurement": "Fed (%)", "setting": "Ae. aegypti mosquitoes; [4]", "value": 0.0, "unit": "%"}, {"measurement": "Blood-fed #", "setting": "Ae. aegypti mosquitoes; ACU sleeve, treated specimens stored in refrigerator for one year then tested, concentrations as E1", "value": "0 #"}, {"measurement": "Blood-fed #", "setting": "Ae. aegypti mosquitoes; FRACU, untreated sleeve + treated strip (20.5 cm × 2.6 cm) at wrist, hand gloved, TL-I-73 0.163, transfluthrin 0.158 mg/cm^2", "value": "71 #"}, {"measurement": "Blood-fed #", "setting": "Ae. aegypti mosquitoes; FRACU, untreated sleeve + treated strip, Ultrathon 12 hr repellent (34.34% DEET) on hand, TL-I-73 0.163, transfluthrin 0.158 mg/cm^2", "value": "85 #"}, {"measurement": "Bite Protection (%)", "setting": "Ae. aegypti mosquitoes; [5]", "value": "−45", "unit": "%"}, {"measurement": "Fed (%)", "setting": "Ae. aegypti mosquitoes; [5]", "value": 38.8, "unit": "%"}, {"measurement": "Bite Protection (%)", "setting": "Ae. aegypti mosquitoes; [6]", "value": 57.2, "unit": "%"}, {"measurement": "Fed (%)", "setting": "Ae. aegypti mosquitoes; [6]", "value": 10.5, "unit": "%"}]}
{"smiles": "CCOc1ccc(C(C)(C)COCc2cccc(Oc3ccccc3)c2)cc1", "note": "[Etofenprox]", "values": [{"measurement": "Bite Protection (% ± SE) (Ae. aegypti + An. albimanus)", "setting": "[1]", "value": "94.9 ± 0.6", "unit": "%"}]}
